Entries after “also recorded” stand apart in the source; their conditions may differ. Read-outs that look alike come from different tables or passages of the source.
Legend:
[1] = target: T1, human PARP1 (Homo sapiens, UniProt P09874); experiment: PARP inhibitor assay (HT Fluorescent Homogeneous PARP Inhibition Assay Kit); type: biochemical; details: 10 μM, in vitro
T1 construct: purchased Trevigen
Experimental: (§1) The assay was performed with the HT Fluorescent Homogeneous PARP Inhibition Assay Kit (Trevigen), following manufacturer's instructions. Briefly, nicotinamide adenine dinucleotide, human PARP1 and activated-DNA solution was added onto a 96-well plate. 54 repurchased small molecules, at 10 μM final concentration, were introduced onto the 96-well assay plate and incubated in a humid chamber at room temperature for 30 min in dark. Cycling mixture, with resazurin and cycling enzyme diaphorase, was then added and incubated further for 1 hr in dark. Reaction was terminated by adding the stopping buffer.
as §1, with “(Trevegen),” for “(Trevigen),”, “stopped” for “terminated”

[2] = system: WI-38 cells; details: for Assay 1: H2O2-resistant: YES/NO, if NO, possibly due to repeated freezing/thawing of stocks; for EC50: read-out: Est. ED50, dose response 0.6-20 μM, H2O2-resistance
[3] = system: PC12 cells expressing poly(Q)103-Htt-EGFP; experiment: Poly(Q) toxicity & viability analysis (cellular model of Huntington's disease); type: cell-based, rat; details: 10 uM; YES/NO
Experimental: Viability assays were performed as described before (Aiken et al., 2004). PC12 cells that stably express the inducible poly(Q)103-Htt-EGFP were grown in culture. […] Cell viability was analyzed 48 hrs later by measuring ATP content with CellTiter-Glo.
Toxic protein aggregation is a key feature of many age-related neurodegenerative diseases, including Alzheimer's and Huntington's disease (Caughey and Lansbury, 2003; Ross and Poirier, 2004). A number of animal models (Phillips et al., 2009) and cell models (Schlachetzki et al., 2013) have been established to study these diseases. For this purpose, PC12 rat pheochromocytoma cells display neuronal features and produce neurotransmitters and have been used extensively to study neuronal phenotypes, including synaptic transmission and neurological diseases. […] In this model, induced expression of poly(Q)103-Htt-EGFP could lead to the formation of aggregates and exert substantial toxicity in cells.

[4] = system: human dermal fibroblast (HDF) primary cells; experiment: H2O2-resistance in primary human dermal fibroblasts; type: cell-based; details: YES/NO
[5] = system: WI-38 cells; experiment: MMS resistance assay; type: cell-based, human; details: YES/NO; for Assay 3: MMS-resistant: * indicates partial; for Assay 5: Triple resistant: H2O2, cadmium and MMS
Experimental: (§2) For many stress conditions tested previously, one significant correlation to longevity is the cellular resistance to H2O2 or CdCl2. Applicants then tested these small molecules, at five different final concentrations (0.25 μM to 20 μM), for cadmium and MMS resistance in WI-38 cells.
(§3) The setups on 384-well plates and incubation times were the same as for H2O2 until the time of incubation with the stressors, which was 12 hours for both cadmium and MMS assays. Applicants tested several conditions, including conditions used to assay fibroblasts from long-lived animals (Salmon et al., 2005). These conditions produced better results with the positive controls (KEAP1 and AKT1 siRNAs) in the MMS assay. Thus, for MMS, the cells were shifted from growth media—OptiMEM+10% FBS, to DMEM (Gibco)+2% BSA (no serum) just before adding small molecules, which occurred 24 hours before MMS addition.
(§4) Isolated small molecules were tested for MMS and cadmium resistance twice in two independent assays. Each small molecule was analyzed at five different concentrations (0.25 μM to 20 μM final concentration), with technical triplicates for each dose. Data were analyzed using a global variance t-test.

[6] = system: WI-38 cells; experiment: CdCl2 (cadmium) resistance assay; type: cell-based, human; details: YES/NO; for Assay 2: Cadmium-resistant: * indicates partial
Experimental: as §2, §3, §4

[7] = system: C. elegans; experiment: C. elegans lifespan assays (liquid and plate); type: in vivo, Caenorhabditis elegans; details: for ILS at 66 µM: Caenorhabditis elegans
[8] = system: NRF2; experiment: qPCR analysis of NRF2-regulated genes; type: cell-based, human; details: Homo sapiens, 24 h, Assay 12(o), at 10 uM, qPCR
Experimental: (§5) For qPCR analysis, WI-38 cells were treated with small molecules (at 10 μM) (biological quadruplicates) for 24 hrs and processed for RNA isolation and reverse transcription (RT) with the Cells-to-Ct Kit (Life Technologies), following manufacturer's instructions. RT products were diluted with H2O and used for qPCR analysis on an ABI 7300 system (Life Technologies) (technical triplicates). Relative expression levels of target genes were normalized to the genes B2M, PPIA and GAPDH. To knock down the expression of FOXO3 or NRF2, WI-38 cells were transfected, using the RNAiMAX reagents (Life Technologies), with siRNA oligos (at 10 nM final concentration, 10 ml culture medium) for FOXO3 (Life Technologies) or NRF2 (Integrated DNA Technologies) on 10-cm petri dishes for 36 hrs, and then detached and aliquoted onto 96-well (for qPCR analysis) or 384-well plates (for H2O2-stress treatment). ˜24 hrs later, small molecules were introduced and incubated with cells for 24 hrs. Cells were then either processed with the Cells-to-Ct Kit to prepare RT products for qPCR analysis or subjected to H2O2 (700 μM) for 3 hrs and assayed for viability. The knockdown efficiency of FOXO3 or NRF2 was checked at 36 hrs post-transfection and at the end as well.
(§6) For qPCR analysis, WI-38 cells were treated with small molecules (at 10 μM) (biological quadruplicate) for 24 hrs and processed for RNA isolation and reverse transcription (RT) with the Cells-to-Ct Kit (Life Technologies), following manufacturer's instructions. RT products were diluted with H2O and used for qPCR analysis on a LightCycler 480 system (Roche) (technical triplicates). Relative expression levels of target genes were normalized to the genes B2M, PPIA and GAPDH. To knock down the expression of FOXO3 or NRF2, WI-38 cells were transfected with siRNA oligos (at 10 nM final concentration) for FOXO3 (Life Technologies) or NRF2 on 10-cm petri dish for 36 hrs, and then detached and aliquoted onto 96-well plates. ˜24 hrs later, small molecules were introduced and incubated with cells for 24 hrs. Cells were then processed with the Cells-to-Ct Kit to prepare RT products for qPCR analysis. The knockdown efficiency of FOXO3 or NRF2 was checked at 36 hrs post-transfection and at the end as well.
NRF2/SKN-1, the oxidative stress and xenobiotic phase 2 detoxification protein, can extend animal lifespan (Sykiotis and Bohmann, 2008; Tullet et al., 2008). Applicants analyzed these small molecules for their ability to increase the expression of NRF2-regulated genes, including HMOX1 (heme oxygenase (decycling) 1; anti-oxidant), NQO1 (NAD(P)H dehydrogenase, quinone 1; phase 2 detoxification enzyme), GCLC (glutamate-cysteine ligase, catalytic) and GSTM1 (glutathionine S transferase) (Hur and Gray, 2011; Suzuki et al., 2013).

[9] = system: FOXO3; experiment: qPCR analysis of FOXO3-regulated genes; type: cell-based, human; details: Homo sapiens, 24 h; Assay 10(m); at 10 uM, qPCR; read-out: Induction of FOXO3-regulated genes: TXNIP normalized fold-change
Experimental: as §5, §6
Many perturbations that increase lifespan and stress resistance in animals do so in a FOXO-dependent fashion (Kenyon, 2010c). Humans have several FOXO genes, but FOXO3, which promotes stress resistance in mammalian cell culture (Kops et al., 2002; Nemoto and Finkel, 2002; Tran et al., 2003), is the one that has been linked to exceptional longevity in humans (Anselmi et al., 2009; Flachsbart et al., 2009; Li et al., 2009; Pawlikowska et al., 2009; Soerensen et al., 2010; Willcox et al., 2008). FOXO1, in contrast, appears to be responsible for some symptoms of diabetes in mouse models (Cheng and White, 2011). For this reason, applicants have focused on analyzing potential ability of our small molecules to activate FOXO3. […] Another 4 molecules (Gr-7A, Gr-7C, O12 and O23) could induce robust expression (greater than 1.5-fold) of at least 2 FOXO3 target genes.

[10] = Assay 2(z), 1.0 × 10^9 bacteria/ml, wild type + FuDR (2012 July), read-out: Lifespan assay in liquid
[11] = Assay 3(aa), 2.5 × 10^9 bacteria/ml, wild type + FuDR, read-out: Lifespan assay in liquid
[12] = Assay 4(ab), 2.0 × 10^10 bacteria/ml, CF512 worms, no FuDR, read-out: Lifespan assay on plates
[13] = Assay 5(ac), 1.0 × 10^11 bacteria/ml, CF512 worms, no FuDR, read-out: Lifespan assay on plates
[14] = Assay 6(ad), 2.0 × 10^10 bacteria/ml, CF512 worms, no FuDR, read-out: Lifespan assay on plates
[15] = Assay 7(ae), 1.0 × 10^11 bacteria/ml, CF512 worms, no FuDR, read-out: Lifespan assay on plates

T1 sequence (P09874 whole entry): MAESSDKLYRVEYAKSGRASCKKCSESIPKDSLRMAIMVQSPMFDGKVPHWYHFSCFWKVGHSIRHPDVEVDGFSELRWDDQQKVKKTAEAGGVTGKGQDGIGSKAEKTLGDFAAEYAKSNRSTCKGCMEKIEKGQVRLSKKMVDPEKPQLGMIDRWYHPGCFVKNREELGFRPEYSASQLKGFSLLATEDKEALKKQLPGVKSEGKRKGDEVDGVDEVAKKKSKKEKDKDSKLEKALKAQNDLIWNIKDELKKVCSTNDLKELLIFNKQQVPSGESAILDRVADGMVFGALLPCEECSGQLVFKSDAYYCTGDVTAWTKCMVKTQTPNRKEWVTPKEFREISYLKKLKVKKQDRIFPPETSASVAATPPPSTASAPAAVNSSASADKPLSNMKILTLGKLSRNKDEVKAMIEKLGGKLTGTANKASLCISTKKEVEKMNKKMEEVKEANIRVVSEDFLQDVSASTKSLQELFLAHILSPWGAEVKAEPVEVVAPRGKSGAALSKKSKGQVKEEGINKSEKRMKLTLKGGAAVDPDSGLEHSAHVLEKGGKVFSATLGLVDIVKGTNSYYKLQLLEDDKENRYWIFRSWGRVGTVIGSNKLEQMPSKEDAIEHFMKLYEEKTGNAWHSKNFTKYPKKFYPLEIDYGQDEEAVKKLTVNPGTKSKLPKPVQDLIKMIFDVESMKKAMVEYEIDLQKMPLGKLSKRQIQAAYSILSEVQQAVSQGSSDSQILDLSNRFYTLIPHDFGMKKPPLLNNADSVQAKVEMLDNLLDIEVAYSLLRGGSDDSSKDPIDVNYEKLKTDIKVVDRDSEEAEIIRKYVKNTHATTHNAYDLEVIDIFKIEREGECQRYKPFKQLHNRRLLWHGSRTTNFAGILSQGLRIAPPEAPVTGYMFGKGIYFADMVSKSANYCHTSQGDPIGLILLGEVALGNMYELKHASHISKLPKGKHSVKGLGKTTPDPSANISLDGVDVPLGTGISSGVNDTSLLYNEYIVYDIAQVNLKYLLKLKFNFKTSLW

| Compound | Inhibition of PARP1 [1] | Assay 1: H2O2-resistant [2] | EC50 [2] | Assay 20: Huntington's poly-Q toxicity attenuation [3] | Assay 6: H2O2-resistant, at 10 uM, human dermal fibroblast (HDF) primary cells [4] | Assay 3: MMS-resistant [5] | Assay 5: Triple resistant [5] | Assay 4: H2O2- & Cd-resistant [6] | Assay 2: Cadmium-resistant [6] | ILS at 66 µM [7, 10] | ILS at 66 µM [7, 11] | ILS at 66 µM [7, 12] | ILS at 66 µM [7, 13] | ILS at 66 µM [7, 14] | ILS at 66 µM [7, 15] | Lifespan extension of C. elegans ([7]; across independent trials) | Trials with lifespan extension ([7]; positive of total trials) | fold induction at 10 µM ([8]; read-out: Induction of NRF2-regulated genes: HMOX1 normalized fold-change) | fold induction at 10 µM [9] | fold induction at 10 µM ([8]; read-out: Induction of NRF2-regulated genes: NQO1 normalized fold-change) |
| --- | --- | --- | --- | --- | --- | --- | --- | --- | --- | --- | --- | --- | --- | --- | --- | --- | --- | --- | --- | --- |
| O=C1NC(=O)c2cccc3cccc1c23 [O7] | confirmed as PARP inhibitors | YES | 5.5 µM | YES | YES | YES | YES | YES | YES | 19.7% | 26% | 33.7% | 10.2% | 5.8% | -10.5% | 10%-34% | 4 of 4 |  |  |  |
| CN1CCC=C(Cc2nnc(O)c3ccccc23)C1 [Gr-2D] | inhibitors of PARP1 |  | 3.42 µM |  |  |  |  |  |  |  |  |  |  |  |  |  |  |  |  |  |
| CNS(=O)(=O)c1cc(-c2nnc(O)c3ccccc23)ccc1C [Gr-2A] | inhibitors of PARP1; also recorded: PARP inhibitors | YES | 3.05 µM |  | YES | YES | YES | YES | YES | 22.7% | 10.8% | 11.4% |  |  |  |  |  |  |  |  |
| Oc1nnc(Cc2ccccc2)c2ccccc12 [Gr-2C] | inhibitors of PARP1; also recorded: PARP inhibitors | YES | 3.12 µM |  | YES | YES | YES | YES | YES | 15.3% | 0.1% | 7.6% |  |  |  |  |  | 1.23 | 1.2 |  |
| Cc1sc2nc(SCC(=O)N3CCOCC3)nc(O)c2c1C [O3] | inhibitors of PARP1; also recorded: PARP inhibitors | YES | 20 µM |  | YES | YES | YES | YES | YES | 14.1% | 14.8% | 15.9% | 12% | 8.7% | 1.4% |  |  |  |  | 1.21 |
